18 compounds from patent publication US9975907B2, “Pyrimidinones as PI3K inhibitors” (Incyte Corporation, priority 2009, dated 2018) can be followed below.

pIC50: −log10 of the molar value. Structures can show the parent of a compound that is named as a salt.

The target of experiment [1] is T1, PI3Kδ (p110δ/p85α) (Homo sapiens (Human), UniProt O00329). Kind of experiment: PI3Kδ Scintillation Proximity Assay (Assay A3). It is filed as biochemical. The following applies: column b, Assay A3 (SPA), 20 μM ATP. The text has this:
[γ-^33P]ATP (10 mCi/mL) was purchased from Perkin-Elmer (Waltham, Mass.). Lipid kinase substrate, D-myo-Phosphatidylinositol 4,5-bisphosphate (PtdIns(4,5)P2)D (+)-sn-1,2-di-O-octanoylglyceryl, 3-O-phospho linked (PIP2), CAS 204858-53-7, was purchased from Echelon Biosciences (Salt Lake City, Utah). PI3Kδ (p110δ/p85α) was purchased from Millipore (Bedford, Mass.). ATP, MgCl2, DTT, EDTA, MOPS and CHAPS were purchased from Sigma-Aldrich (St. Louis, Mo.). Wheat Germ Agglutinin (WGA) YSi SPA Scintillation Beads was purchased from GE healthcare life sciences (Piscataway, N.J.).
The kinase reaction was conducted in polystyrene 384-well matrix white plate from Thermo Fisher Scientific in a final volume of 25 μL. Inhibitors were first diluted serially in DMSO and added to the plate wells before the addition of other reaction components. The final concentration of DMSO in the assay was 0.5%. The PI3K assays were carried out at room temperature in 20 mM MOPS, pH 6.7, 10 mM MgCl2, 5 mM DTT and CHAPS 0.03%. Reactions were initiated by the addition of ATP, the final reaction mixture consisted of 20 μM PIP2, 20 μM ATP, 0.2 μCi [γ-^33P] ATP, 4 nM PI3Kδ. Reactions were incubated for 210 min and terminated by the addition of 40 μL SPA beads suspended in quench buffer: 150 mM potassium phosphate pH 8.0, 20% glycerol. 25 mM EDTA, 400 μM ATP. The final concentration of SPA beads was 1.0 mg/mL. After the plate sealing, plates were shaken overnight at room temperature and centrifuged at 1800 rpm for 10 minutes, the radioactivity of the product was determined by scintillation counting on Topcount (Perkin-Elmer). IC50 determination was performed by fitting the curve of percent control activity versus the log of the inhibitor concentration using the GraphPad Prism 3.0 software.

The subject of experiment [2] is Pfeiffer cell line (diffuse large B cell lymphoma). Kind of experiment: Pfeiffer Cell Proliferation Assay. As to conditions: 3-4 days, [3H]-thymidine incorporation. It counts as cell-based. On the procedure:
Pfeiffer cell line (diffuse large B cell lymphoma) was purchased from ATCC (Manassas, Va.) and maintained in the culture medium recommended (RPMI and 10% FBS). To measure the anti-proliferation activity of the PI3Kδ submittals, the Pfeiffer cells were plated with the culture medium (2×10^3 cells/well/per 200 μl) into 96-well ultra-low binding plates (Corning, Corning, N.Y.), in the presence or absence of a concentration range of test compounds. After 3-4 days, [^3H]-thymidine (1 μCi/well) (PerkinElmer, Boston, Mass.) in PBS was then added to the cell culture for an additional 12 hrs before the incorporated radioactivity was separated by filtration with water through GF/B filters (Packard Bioscience, Meriden, Conn.) and measured by liquid scintillation counting with a TopCount (Packard Bioscience). See Table 3 for data related to compounds of the invention.

Experiment [3] has as its target T1, PI3Kδ (p110δ/p85α). Kind of experiment: AlphaScreen Assay for PI3Kδ (Assay A1). It counts as biochemical. The following applies: column a, 20 μM ATP. The source says:
PI3-Kinase luminescent assay kit including lipid kinase substrate, D-myo-phosphatidylinositol 4,5-bisphosphate (PtdIns(4,5)P2)D (+)-sn-1,2-di-O-octanoylglyceryl, 3-O-phospho linked (PIP2), biotinylated I(1,3,4,5)P4, PI(3,4,5)P3 Detector Protein, was purchased from Echelon Biosciences (Salt Lake City, Utah). AlphaScreen™ GST Detection Kit including donor and acceptor beads was purchased from PerkinElmer Life Sciences (Waltham, Mass.). PI3Kδ (p110δ/p85α) was purchased from Millipore (Bedford, Mass.). ATP, MgCb, DTT, EDTA, HEPES and CHAPS were purchased from Sigma-Aldrich (St. Louis, Mo.).
AlphaScreen™ Assay for PI3Kδ
The kinase reaction was conducted in 384-well REMP plate from Thermo Fisher Scientific in a final volume of 40 μL. Inhibitors were first diluted serially in DMSO and added to the plate wells before the addition of other reaction components. The final concentration of DMSO in the assay was 2%. The PI3K assays were carried out at room temperature in 50 mM HEPES, pH 7.4, 5 mM MgCl2, 50 mM NaCl, 5 mM DTT and CHAPS 0.04%. Reactions were initiated by the addition of ATP, the final reaction mixture consisted of 20 μM PIP2, 20 μM ATP, 1.2 nM PI3Kδ were incubated for 20 min. 10 μL of reaction mixture was then transferred to 5 μL 50 nM biotinylated I(1,3,4,5)P4 in quench buffer: 50 mM HEPES pH 7.4, 150 mM NaCl, 10 mM EDTA, 5 mM DTT, 0.1% Tween-20, followed with the addition of 10 μL AlphaScreen™ donor and acceptor beads suspended in quench buffer containing 25 nM PI(3,4,5)P3 detector protein. The final concentration of both donor and acceptor beads is […]. After plate sealing, the plate was incubated in a dark location at room temperature for 2 hours. The activity of the product was determined on Fusion-alpha microplate reader (Perkin-Elmer). IC50 determination was performed by fitting the curve of percent control activity versus the log of the inhibitor concentration using the GraphPad Prism 3.0 software.

T1 sequence (O00329 whole entry, species assumed): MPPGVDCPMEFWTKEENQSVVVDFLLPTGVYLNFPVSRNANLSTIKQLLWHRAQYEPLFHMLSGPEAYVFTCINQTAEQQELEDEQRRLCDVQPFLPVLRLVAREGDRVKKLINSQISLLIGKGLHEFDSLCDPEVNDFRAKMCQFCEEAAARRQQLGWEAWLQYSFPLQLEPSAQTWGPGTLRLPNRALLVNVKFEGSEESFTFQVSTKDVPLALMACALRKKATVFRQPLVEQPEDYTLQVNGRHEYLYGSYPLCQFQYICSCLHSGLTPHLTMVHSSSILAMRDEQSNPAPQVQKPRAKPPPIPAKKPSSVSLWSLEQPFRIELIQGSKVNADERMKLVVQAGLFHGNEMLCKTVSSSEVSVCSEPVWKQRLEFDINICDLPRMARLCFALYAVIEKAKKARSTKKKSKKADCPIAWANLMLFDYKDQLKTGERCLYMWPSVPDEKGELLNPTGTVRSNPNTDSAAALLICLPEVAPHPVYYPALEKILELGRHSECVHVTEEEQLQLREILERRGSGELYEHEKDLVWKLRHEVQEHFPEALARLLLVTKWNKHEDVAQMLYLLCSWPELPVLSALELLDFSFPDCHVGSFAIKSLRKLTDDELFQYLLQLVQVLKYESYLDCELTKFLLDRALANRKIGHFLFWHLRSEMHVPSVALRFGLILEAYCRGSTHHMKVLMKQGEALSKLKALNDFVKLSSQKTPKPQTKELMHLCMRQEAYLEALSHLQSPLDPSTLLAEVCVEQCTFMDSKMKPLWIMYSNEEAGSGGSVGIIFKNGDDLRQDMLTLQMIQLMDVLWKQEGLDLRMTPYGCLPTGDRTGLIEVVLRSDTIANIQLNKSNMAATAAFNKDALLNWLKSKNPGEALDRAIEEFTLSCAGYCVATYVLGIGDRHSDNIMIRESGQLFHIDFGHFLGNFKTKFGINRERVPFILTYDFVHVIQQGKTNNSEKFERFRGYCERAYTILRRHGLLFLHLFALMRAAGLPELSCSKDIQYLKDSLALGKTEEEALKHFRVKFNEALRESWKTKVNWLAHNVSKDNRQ
T1 sequence (P27986 whole entry partner, species assumed): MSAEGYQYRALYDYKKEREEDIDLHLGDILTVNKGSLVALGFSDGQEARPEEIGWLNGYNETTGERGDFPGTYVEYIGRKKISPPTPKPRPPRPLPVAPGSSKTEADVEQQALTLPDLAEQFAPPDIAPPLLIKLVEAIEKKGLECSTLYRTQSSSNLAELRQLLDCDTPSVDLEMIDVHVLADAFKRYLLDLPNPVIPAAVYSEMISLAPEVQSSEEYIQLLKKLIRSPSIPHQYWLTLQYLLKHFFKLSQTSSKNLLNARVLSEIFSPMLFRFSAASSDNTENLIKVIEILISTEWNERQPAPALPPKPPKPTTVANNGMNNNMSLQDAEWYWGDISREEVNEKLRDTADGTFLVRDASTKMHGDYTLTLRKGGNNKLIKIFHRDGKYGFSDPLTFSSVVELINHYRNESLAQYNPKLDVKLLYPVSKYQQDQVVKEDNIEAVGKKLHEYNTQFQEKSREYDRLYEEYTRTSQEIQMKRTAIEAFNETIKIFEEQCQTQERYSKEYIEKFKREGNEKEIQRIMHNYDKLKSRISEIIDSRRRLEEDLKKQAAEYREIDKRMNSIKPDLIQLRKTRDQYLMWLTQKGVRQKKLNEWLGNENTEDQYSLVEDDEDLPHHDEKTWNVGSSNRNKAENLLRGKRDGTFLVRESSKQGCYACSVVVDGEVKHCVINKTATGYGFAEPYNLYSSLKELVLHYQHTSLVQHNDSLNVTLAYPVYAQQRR

In the case of `Cc1cccc2nc(C(C)Nc3ncnc4[nH]cnc34)c(-c3cccc(F)c3)c(=O)n12` (centres unmarked) [Example 70, 3-(3-Fluorophenyl)-6-methyl-2-[1-(9H-purin-6-ylamino)ethyl]-4H-pyrido[1,2-a]pyrimidin-4-one trifluoroacetic acid salt], the pIC50 is 7.00 to 7.30 against PI3Kδ (p110δ/p85α) [1] and more than 7.30 in experiment [2] (Homo sapiens, Pfeiffer).
Regarding `CCC(Nc1ncnc2[nH]cnc12)c1nc2cccc(C)n2c(=O)c1-c1cc(F)cc(F)c1` (centres unmarked) [Example 5, 3-(3,5-difluorophenyl)-6-methyl-2-[1-(9H-purin-6-ylamino)propyl]-4H-pyrido[1,2-a]pyrimidin-4-one], the negative-log IC50 (pIC50) on PI3Kδ (p110δ/p85α) [3] was 6.30 to 7.00; at PI3Kδ (p110δ/p85α) [1], 7.00 to 7.30.
The corresponding values for `CCC(Nc1ncnc2[nH]cnc12)c1nc2cccc(C)n2c(=O)c1-c1cncc(F)c1` (centres unmarked) [Example 3, 3-(5-fluoropyridin-3-yl)-6-methyl-2-[1-(9H-purin-6-ylamino)propyl]-4H-pyrido[1,2-a]pyrimidin-4-one] are 6.30 to 7.00 and 6.30 to 7.00.
The corresponding values for `CCC(Nc1ncnc2[nH]cnc12)c1nc2cccc(C)n2c(=O)c1-c1cccc(F)c1` (centres unmarked) [Example 4, 3-(3-fluorophenyl)-6-methyl-2-[1-(9H-purin-6-ylamino)propyl]-4H-pyrido[1,2-a]pyrimidin-4-one] are 6.30 to 7.00 and 7.00 to 7.30.
The corresponding values for `CCC(Nc1ncnc2[nH]cnc12)c1nc2cccc(C)n2c(=O)c1-c1ccccc1` (centres unmarked) [Example 2, 6-methyl-3-phenyl-2-[1-(9H-purin-6-ylamino)propyl]-4H-pyrido[1,2-a]pyrimidin-4-one] are 7.00 to 7.30 and more than 7.30.
As to `Cc1cccc2nc(C(C)Nc3nc(N)nc4[nH]cnc34)c(-c3cccc(F)c3)c(=O)n12` (single isomer, unassigned) [Example 75, 2-{1-[(2-Amino-9H-purin-6-yl)amino]ethyl}-3-(3-fluorophenyl)-6-methyl-4H-pyrido[1,2-a]pyrimidin-4-one trifluoroacetic acid salt], the pIC50 was less than 6.30 on PI3Kδ (p110δ/p85α) [1] and 6.00 to 6.30 in experiment [2] (trifluoroacetic acid salt).
For the compound `Cc1csc2nc([C@H](C)Nc3nc(N)nc4[nH]cnc34)c(-c3ccccc3Cl)c(=O)n12` (single isomer, unassigned) [39 Second peak], in experiment [2], the negative-log IC50 (pIC50) was more than 7.30.
Regarding `Cc1cccc2nc(C(C)Nc3nc(N)nc4[nH]cnc34)c(-c3cccc(F)c3)c(=O)n12` (single isomer, unassigned) [Example 74, 2-{1-[(2-Amino-9H-purin-6-yl)amino]ethyl}-3-(3-fluorophenyl)-6-methyl-4H-pyrido[1,2-a]pyrimidin-4-one trifluoroacetic acid salt], the pIC50 (against PI3Kδ (p110δ/p85α) [1]; in experiment [2] (trifluoroacetic acid salt)) was more than 7.30 throughout.
Take `Cc1cccc2nc(C(C)Nc3ncnc4[nH]cnc34)c(-c3cccc(F)c3)c(=O)n12` (single isomer, unassigned) [Example 72, 3-(3-Fluorophenyl)-6-methyl-2-[1-(9H-purin-6-ylamino)ethyl]-4H-pyrido[1,2-a]pyrimidin-4-one trifluoroacetic acid salt]: the pIC50 against PI3Kδ (p110δ/p85α) [1] was less than 6.30; in experiment [2] (trifluoroacetic acid salt), 6.00 to 6.30.
Regarding `Cc1csc2nc([C@H](C)Nc3ncnc4[nH]cnc34)c(-c3ccccc3Cl)c(=O)n12` (single isomer, unassigned) [43 Second peak], the negative-log IC50 (pIC50) in experiment [2] was more than 7.30.
For `CCC(Nc1ncnc2[nH]cnc12)c1nc2cccc(C)n2c(=O)c1-c1cccnc1F` (centres unmarked) [Example 6, 3-(2-fluoropyridin-3-yl)-6-methyl-2-[1-(9H-purin-6-ylamino)propyl]-4H-pyrido[1,2-a]pyrimidin-4-one], the negative-log IC50 (pIC50) against PI3Kδ (p110δ/p85α) [3] and at PI3Kδ (p110δ/p85α) [1] was 6.30 to 7.00 in each case.
Take `CCC(Nc1ncnc2[nH]cnc12)c1nc2cccc(C)n2c(=O)c1-c1cn[nH]c1` (centres unmarked) [Example 7, 6-methyl-2-[1-(9H-purin-6-ylamino)propyl]-3-(1H-pyrazol-4-yl)-4H-pyrido[1,2-a]pyrimidin-4-one]: the figures for the negative-log IC50 (pIC50) at PI3Kδ (p110δ/p85α) [3] and at PI3Kδ (p110δ/p85α) [1] were 6.30 to 7.00 and 7.00 to 7.30, respectively.
For the compound `Cc1cccc2nc(C(C)Nc3nc(N)nc4[nH]cnc34)c(-c3cccc(F)c3)c(=O)n12` (centres unmarked) [Example 73, 2-{1-[(2-Amino-9H-purin-6-yl)amino]ethyl}-3-(3-fluorophenyl)-6-methyl-4H-pyrido[1,2-a]pyrimidin-4-one trifluoroacetic acid salt], the pIC50 was more than 7.30 against PI3Kδ (p110δ/p85α) [1] and more than 7.30 in experiment [2] (Homo sapiens, Pfeiffer).
Turning to `Cc1csc2nc(C(C)Nc3ncnc4[nH]cnc34)c(-c3ccccc3)c(=O)n12` (centres unmarked) [Example 8, 3-methyl-6-phenyl-7-[1-(9H-purin-6-ylamino)ethyl]-5H-[1,3]thiazolo[3,2-a]pyrimidin-5-one], the negative logarithm of the IC50 (pIC50) at PI3Kδ (p110δ/p85α) [3] was 7.00 to 7.30; at PI3Kδ (p110δ/p85α) [1], more than 7.30.
The corresponding values for `Cc1cccc2nc(C(C)n3cnc4c(N)ncnc43)c(-c3ccccc3)c(=O)n12` (centres unmarked) [Example 1, 2-[1-(6-amino-9H-purin-9-yl)ethyl]-6-methyl-3-phenyl-4H-pyrido[1,2-a]pyrimidin-4-one] are 6.30 to 7.00 and 6.30 to 7.00.
For the compound `Cc1csc2nc(C(C)Nc3ncnc4[nH]cnc34)c(-c3ccccn3)c(=O)n12` (centres unmarked) [Example 14, 3-methyl-7-[1-(9H-purin-6-ylamino)ethyl]-6-pyridin-2-yl-5H-[1,3]thiazolo[3,2-a]pyrimidin-5-one], the pIC50 at PI3Kδ (p110δ/p85α) [3] and against PI3Kδ (p110δ/p85α) [1] was 7.00 to 7.30 throughout.
`Cc1csc2nc(C(C)Nc3ncnc4[nH]cnc34)c(-c3ccncc3)c(=O)n12` (centres unmarked) [Example 19, 3-methyl-7-[1-(9H-purin-6-ylamino)ethyl]-6-pyridin-4-yl-5H-[1,3]thiazolo[3,2-a]pyrimidin-5-one] gave a negative-log IC50 (pIC50) on PI3Kδ (p110δ/p85α) [1] of 6.30 to 7.00.
Still for that read-out and setting: the value for `CC(Nc1ncnc2[nH]cnc12)c1nc2ccccn2c(=O)c1-c1cc(F)cc(F)c1` (centres unmarked) [Example 79, 3-(3,5-Difluorophenyl)-2-[1-(9H-purin-6-ylamino)ethyl]-4H-pyrido[1,2-a]pyrimidin-4-one trifluoroacetic acid salt] was less than 6.30.
